In ChEMBL document CHEMBL2074144, “Pharmacokinetics of erythromycin in rabbit corneas after single-dose infusion: role of P-glycoprotein as a barrier to in vivo ocular drug absorption” (J Pharmacol Exp Ther, 2004):

Target: ATP-dependent translocase ABCB1 (Homo sapiens, UniProt P08183)
Assay: TP_TRANSPORTER: transepithelial transport in MDR1-expressing MDCK cells
Assay type: functional, cell-based
Settings: dog

Chain of ATP-dependent translocase ABCB1 (P08183 whole entry): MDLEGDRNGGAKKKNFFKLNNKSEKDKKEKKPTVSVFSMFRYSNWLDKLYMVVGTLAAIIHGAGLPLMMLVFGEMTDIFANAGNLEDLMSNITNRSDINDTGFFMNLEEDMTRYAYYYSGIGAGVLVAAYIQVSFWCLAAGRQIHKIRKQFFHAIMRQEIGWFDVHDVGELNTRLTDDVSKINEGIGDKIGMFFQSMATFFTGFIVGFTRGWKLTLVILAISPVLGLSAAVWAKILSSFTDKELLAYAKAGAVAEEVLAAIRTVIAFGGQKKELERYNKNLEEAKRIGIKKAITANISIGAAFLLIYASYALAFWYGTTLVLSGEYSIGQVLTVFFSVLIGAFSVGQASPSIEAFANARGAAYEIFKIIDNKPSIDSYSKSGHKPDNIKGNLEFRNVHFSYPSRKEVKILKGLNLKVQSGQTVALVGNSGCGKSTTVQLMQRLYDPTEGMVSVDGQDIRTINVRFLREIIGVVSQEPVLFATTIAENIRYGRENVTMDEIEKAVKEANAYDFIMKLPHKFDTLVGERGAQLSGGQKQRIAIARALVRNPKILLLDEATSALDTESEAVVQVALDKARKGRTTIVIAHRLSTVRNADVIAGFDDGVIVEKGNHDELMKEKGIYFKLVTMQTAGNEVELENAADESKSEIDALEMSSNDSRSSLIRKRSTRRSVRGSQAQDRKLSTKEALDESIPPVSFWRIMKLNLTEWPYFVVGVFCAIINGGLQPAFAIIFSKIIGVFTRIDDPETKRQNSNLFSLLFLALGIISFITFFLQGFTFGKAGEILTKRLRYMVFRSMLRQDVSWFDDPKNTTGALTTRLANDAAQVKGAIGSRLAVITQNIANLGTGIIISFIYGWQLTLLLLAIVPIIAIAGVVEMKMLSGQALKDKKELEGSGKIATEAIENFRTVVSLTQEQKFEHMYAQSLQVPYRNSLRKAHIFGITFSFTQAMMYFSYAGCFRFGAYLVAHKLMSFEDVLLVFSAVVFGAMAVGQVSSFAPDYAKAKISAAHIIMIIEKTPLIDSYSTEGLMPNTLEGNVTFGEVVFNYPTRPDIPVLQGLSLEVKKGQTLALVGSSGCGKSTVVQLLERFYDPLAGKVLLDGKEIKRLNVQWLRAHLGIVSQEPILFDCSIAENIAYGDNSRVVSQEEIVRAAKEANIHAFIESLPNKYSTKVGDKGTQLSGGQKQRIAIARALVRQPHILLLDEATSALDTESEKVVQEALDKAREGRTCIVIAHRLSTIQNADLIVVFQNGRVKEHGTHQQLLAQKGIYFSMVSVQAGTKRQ

Activity: substrate [+]
Compound: CC[C@H]1OC(=O)[C@H](C)[C@@H](O[C@H]2C[C@@](C)(OC)[C@@H](O)[C@H](C)O2)[C@H](C)[C@@H](O[C@@H]2O[C@H](C)C[C@H](N(C)C)[C@H]2O)[C@](C)(OC)C[C@@H](C)C(=O)[C@H](C)[C@@H](O)[C@]1(C)O [CLARITHROMYCIN]
